Assay results published in patent publication US20150099003A1, “Topiramate Sustained-Release Pharmaceutical Composition, Method for Preparing Same, and Uses Thereof” (Institute of Pharmacology and Toxicology Academy of …, priority 2012, published 2015).

Key:
[1] = Release rate in different dissolution media (artificial gastric fluid, water, artificial intestinal fluid); format: physicochemical; details: degradation reaction
Method: In order to verify whether acidic, basic solvent media would influence the release rate of the sustained-release pellets of the present invention, 0.1 mol/L HCl (pH1.2) was prepared as artificial gastric fluid, […] phosphate buffer (pH6.8) was prepared as artificial intestinal fluid, and these media and water (500 ml) were used as release media, rotation speed was 100 rpm, 37° C. Samples (5 ml, supplemented with equivalent volume of media at the meantime) were taken at 1, 2, 4, 8, 12, 16, 20, 24 h, filtrated, and the subsequent filtrates were used as test solutions. High performance liquid chromatography (Appendix V D of Part II of Chinese Pharmacopoeia, 2010 Edition) was used, octylsilane-bonded silica gel was used as packing agent, 50% methanol was mobile phase, differential refractive detector was used, flow rate was 1.5 ml per minute. 200 μl of test solution was taken, injected in liquid chromatograph, the peak area of topiramate as main drug was recorded; topiramate was separately taken as control sample and measured by the same method, and accumulative release percentages of drug at different time points were calculated by external standard method.

human plasma protein = details: plasma concentration range of 0.5-250 μg/ml; decreases with the increase of plasma concentration; cited from earlier work
[2] = cited from earlier work
[3] = cited from earlier work; remark: listed apart in the source

- Stability of topiramate in pH1.2 artificial gastric fluid [1]: unstable
Compound: CC1(C)O[C@@H]2[C@@H](CO[C@@]3(COS(N)(=O)=O)OC(C)(C)O[C@@H]23)O1 [Topiramate, 2,3,4,5-bis-O-(1-methylethylene)-β-D-fructopyranose sulfamate]
- Human plasma protein binding ratio (human plasma protein): 15-41%
- Plasma half-life ([2]; human, in vivo): 19 to 25 h
- Clearance for oral administration ([2]; oral administration): 22 to 36 mL/min
- Solubility in organic solvents ([3]; acetone, chloroform, dimethylsulfoxide and ethanol): freely soluble
- Solubility in alkaline solution ([3]; alkaline solution having pH of 9-10 such as sodium hydroxide or sodium phosphate solutions): very freely soluble
- pH value of saturated solution ([3]; saturated solution): 6.3
- Solubility in water ([3]; water, room temperature): about 9.8 mg/mL
- Solubility in water (descriptive) ([3]; water, room temperature): very slightly soluble
